Like-named read-outs stand apart in the source and are kept apart here.
Experiment: clinical
Conditions: human, in vivo; for AUC(0-inf): read-out: AUCINF_obs; for Cmax: read-out: Cmax
Description: For single-dose PK parameters, plasma samples were taken at pre-dose and 0.5 h, 1 h, 2 h, 3 h, 4 h, 6 h, 8 h, 12 h, 24 h, 48 h, 72 h, 96 h, 120 h, 144 h, and 168 h post-dose in PK lead-in phase of dose-escalation phase, and plasma samples were also taken at pre-dose and 0.5 h, 1 h, 2 h, 3 h, 4 h, 6 h, 8 h, 12 h, and 24 h post-dose in cycle 1 day 1 of dose-expansion phase. During continuous dosing, serial plasma samples were collected at pre-dose in cycle 1 day 15, pre-dose in cycle 1 day 22, pre-dose and 0.5 h, 1 h, 2 h, 3 h, 4 h, 6 h, 8 h, 12 h, and 24 h post-dose in cycle 1 day 28 for all dose cohorts. The following PK parameters were assessed: area under the concentration-time curve from the time of dosing extrapolated to infinity, based on the last observed concentration (AUCINF_obs); area under the concentration-time curve from the time of dosing to the time of last observation (AUClast); maximum concentration (Cmax); time to maximum concentration (Tmax); elimination half-life (T1/2); and mean residence time from the time of dosing to the time of the last measurable concentration (MRTlast).

[1] = cycle 1 day 28 of dose-escalation phase, 600 mg (n=7), mean
[2] = cycle 1 day 28 of dose-escalation phase, 800 mg (n=2), mean
[3] = single dose, PK lead-in phase of dose-escalation phase, 50 mg (n=2), mean
[4] = single dose, PK lead-in phase of dose-escalation phase, 100 mg (n=3), mean
[5] = single dose, PK lead-in phase of dose-escalation phase, 200 mg (n=3), mean
[6] = single dose, PK lead-in phase of dose-escalation phase, 300 mg (n=3), mean
[7] = single dose, PK lead-in phase of dose-escalation phase, 450 mg (n=4), mean
[8] = single dose, PK lead-in phase of dose-escalation phase, 600 mg (n=7), mean
[9] = single dose, PK lead-in phase of dose-escalation phase, 800 mg (n=3), mean

## COc1cc(N2CCC(N3CCN(C)CC3)CC2)ccc1Nc1nc2c(c(Nc3ccccc3S(=O)(=O)NC(C)C)n1)CCN2 [Conteltinib]
Cycle 1 day 28 of dose-escalation phase, 450 mg (n=3), mean, read-out: Tmax
  Tmax: 4.3 h
[1]
  AUC(0-t): 14000 ng·h/mL
  MRT last: 10.8 h
  AUC(0-inf): 53800 ng·h/mL
  Cmax: 985 ng/mL
Cycle 1 day 28 of dose-escalation phase, 600 mg (n=7), mean, read-out: T1/2 (converted)
  half-life: 45 h
Cycle 1 day 28 of dose-escalation phase, 600 mg (n=7), mean, read-out: Tmax
  Tmax: 2.5 h
[2]
  AUC(0-t): 5500 ng·h/mL
  MRT last: 11.6 h
  AUC(0-inf): 27200 ng·h/mL
  Cmax: 305 ng/mL
Cycle 1 day 28 of dose-escalation phase, 800 mg (n=2), mean, read-out: T1/2 (converted)
  half-life: 52.7 h
Cycle 1 day 28 of dose-escalation phase, 800 mg (n=2), mean, read-out: Tmax
  Tmax: 3.5 h
multiple-dose administration, read-out: mean T1/2 across dose cohorts
  half-life: 26.3 to 352 h
multiple-dose administration, read-out: mean Tmax across dose cohorts
  Tmax: 1.5 to 4.3 h
[3]
  AUC(0-t): 125 ng·h/mL
  MRT last: 8.1 h
  AUC(0-inf): 206 ng·h/mL
  Cmax: 16.3 ng/mL
Single dose, PK lead-in phase of dose-escalation phase, 50 mg (n=2), mean, read-out: T1/2 (converted)
  half-life: 22.5 h
Single dose, PK lead-in phase of dose-escalation phase, 50 mg (n=2), mean, read-out: Tmax
  Tmax: 2 h
[4]
  AUC(0-t): 732 ng·h/mL
  MRT last: 30.3 h
  AUC(0-inf): 1050 ng·h/mL
  Cmax: 69 ng/mL
Single dose, PK lead-in phase of dose-escalation phase, 100 mg (n=3), mean, read-out: T1/2 (converted)
  half-life: 90.2 h
Single dose, PK lead-in phase of dose-escalation phase, 100 mg (n=3), mean, read-out: Tmax
  Tmax: 2.8 h
[5]
  AUC(0-t): 2550 ng·h/mL
  MRT last: 47.4 h
  AUC(0-inf): 3110 ng·h/mL
  Cmax: 140 ng/mL
Single dose, PK lead-in phase of dose-escalation phase, 200 mg (n=3), mean, read-out: T1/2 (converted)
  half-life: 83.5 h
Single dose, PK lead-in phase of dose-escalation phase, 200 mg (n=3), mean, read-out: Tmax
  Tmax: 2.7 h
[6]
  AUC(0-t): 4340 ng·h/mL
  MRT last: 46.2 h
  AUC(0-inf): 5110 ng·h/mL
  Cmax: 246 ng/mL
Single dose, PK lead-in phase of dose-escalation phase, 300 mg (n=3), mean, read-out: T1/2 (converted)
  half-life: 78.5 h
Single dose, PK lead-in phase of dose-escalation phase, 300 mg (n=3), mean, read-out: Tmax
  Tmax: 2.5 h
[7]
  AUC(0-t): 9880 ng·h/mL
  MRT last: 40.5 h
  AUC(0-inf): 11500 ng·h/mL
  Cmax: 544 ng/mL
Single dose, PK lead-in phase of dose-escalation phase, 450 mg (n=4), mean, read-out: T1/2 (converted)
  half-life: 78.7 h
Single dose, PK lead-in phase of dose-escalation phase, 450 mg (n=4), mean, read-out: Tmax
  Tmax: 3.3 h
[8]
  AUC(0-t): 9640 ng·h/mL
  MRT last: 43.3 h
  AUC(0-inf): 11200 ng·h/mL
  Cmax: 452 ng/mL
Single dose, PK lead-in phase of dose-escalation phase, 600 mg (n=7), mean, read-out: T1/2 (converted)
  half-life: 78.7 h
Single dose, PK lead-in phase of dose-escalation phase, 600 mg (n=7), mean, read-out: Tmax
  Tmax: 3.9 h
[9]
  AUC(0-t): 9820 ng·h/mL
  MRT last: 42 h
  AUC(0-inf): 11200 ng·h/mL
  Cmax: 421 ng/mL
Single dose, PK lead-in phase of dose-escalation phase, 800 mg (n=3), mean, read-out: T1/2 (converted)
  half-life: 77.2 h
Single dose, PK lead-in phase of dose-escalation phase, 800 mg (n=3), mean, read-out: Tmax
  Tmax: 3.7 h
single-dose administration, read-out: mean T1/2 across dose cohorts
  half-life: 16.7 to 90.2 h
single-dose administration, read-out: mean Tmax across dose cohorts
  Tmax: 2 to 4.6 h
Cycle 1 day 28 of dose-expansion phase, 600 mg (n=10), mean
  MRT last: 10.9 h
Single dose, cycle 1 day 1 of dose-expansion phase, 450 mg (n=10), mean, read-out: T1/2 (converted)
  half-life: 23.4 h
